Laboratory results reported in patent US9023354B2, “Combination therapy with MDM2 and EFGR inhibitors” (priority 2010, dated 2015).
Read-outs that look alike come from different tables or passages of the source.

Test system: A431 cells
Assay: A431 cell proliferation assay (MTT), alone and in combination with Tarceva
Type: cell-based
Conditions: for IC50: further studies, Example 9, Table 7A, read-out: A431 Cell Proliferation (IC50 Value); for A431 Cell Proliferation CI Value: combination with Tarceva, CI <0.8 indicates synergy, Example 9, Table 7B
Procedure: This example describes an assay that measures the ability of compounds to inhibit the proliferation of cultured cells. This assay can also be used to assess whether combining two or more compounds produces additive, synergistic, or antagonistic effects on cell growth.
On day 1, the cells were seeded at 10^3 cells per well in 100 μl of complete media under standard conditions.
On day 2, the cells were washed and 100 μl serum free media was added. The cells were then incubated for at least 2 hours before the addition of compound(s). 20 μl of compound(s) was added to the respective wells and incubated at 37° C., 5% CO2 for 72 hrs.
On day 5, 50 μl of the MTT dye solution was added to each well. The plates were incubated at 37° C., 5% CO2 for 1 hr. The media was then aspirated and the cells were resuspended in […] of DMSO. The plates were allowed to incubate for 5 min at room temperature with gentle shaking.
The absorbance in each well was determined at 560 nm using a Polarstar plate reader.
The A431 cell line over-expresses the EGF receptor, and was utilized to assess the ability of AD4 compounds to inhibit EGF-mediated cell proliferation.

[1] = Homo sapiens, A-431, A431 cells

**Q.** Oc1c(C(Nc2ccc(F)cn2)c2ccc(C(F)(F)F)c(F)c2)ccc2cccnc12 (stereo not drawn) [AD4-13061] was tested. Which IC50 [1] did it give?
**A.** 2200 nM

**Q.** And the “A431 Cell Proliferation CI Value”?
**A.** 0.79

**Q.** With Cc1cccc(NC(c2ccc(Cl)cc2Cl)c2ccc3ccc(C)nc3c2O)n1 (stereo not drawn) [AD4-13082] as the compound, how does the IC50 [1] read?
**A.** 1900 nM

**Q.** And the “A431 Cell Proliferation CI Value”?
**A.** 0.90

**Q.** What does the source list for Cc1ccnc(NC(c2ccc(C(F)(F)F)cc2F)c2ccc3ccc(C)nc3c2O)c1 (stereo not drawn) [AD4-13096]?
**A.** IC50 [1]: 3000 nM; A431 Cell Proliferation CI Value: 0.61

**Q.** How did the IC50 [1] turn out when Oc1c(C(Nc2ccc(Cl)cn2)c2cccc(Cl)c2Cl)ccc2cccnc12 (stereo not drawn) [AD4-13086] was run?
**A.** 1500 nM

**Q.** What about the “A431 Cell Proliferation CI Value” of the same compound?
**A.** 0.80

**Q.** With Cc1cc(NC(c2cc(Cl)ccc2Cl)c2ccc3cccnc3c2O)ncc1F (stereo not drawn) [AD4-13118] as the compound, how does the “A431 Cell Proliferation CI Value” read?
**A.** 0.60

**Q.** For Oc1c(C(Nc2ccc(Cl)cn2)c2cc(Cl)cc(Cl)c2Cl)ccc2cccnc12 (stereo not drawn) [AD4-13111], which IC50 [1] is on record?
**A.** 740 nM

**Q.** What about the “A431 Cell Proliferation CI Value” of the same compound?
**A.** 0.95

**Q.** Which IC50 [1] does the source give for Oc1c(C(Nc2ccc(F)cn2)c2ccc(Cl)c(C(F)(F)F)c2)ccc2cccnc12 (stereo not drawn) [AD4-13071] here?
**A.** 3500 nM

**Q.** What about the “A431 Cell Proliferation CI Value” of the same compound?
**A.** 0.70

**Q.** Cc1cc(NC(c2ccc(Cl)c(C(F)(F)F)c2)c2ccc3cccnc3c2O)ncc1Cl (stereo not drawn) [AD4-13108] was tested. Which IC50 [1] did it give?
**A.** 1600 nM

**Q.** What about the “A431 Cell Proliferation CI Value” of the same compound?
**A.** 0.84

**Q.** Which IC50 [1] does the source give for Cc1cccc(NC(c2cccc(Cl)c2Cl)c2ccc3ccc(C)nc3c2O)n1 (stereo not drawn) [AD4-13073] here?
**A.** 1600 nM

**Q.** And the “A431 Cell Proliferation CI Value”?
**A.** 0.85

**Q.** How did the “A431 Cell Proliferation CI Value” turn out when Cc1nc(NC(c2ccc(Cl)c(Cl)c2)c2ccc3cccnc3c2O)c(Cl)cc1Cl (stereo not drawn) [AD4-13202] was run?
**A.** 0.87

**Q.** How did the IC50 (A431 cells) turn out when Cc1cc(Cl)cnc1NC(c1ccc(F)cc1Cl)c1ccc2cccnc2c1O (stereo not drawn) [AD4-13139] was run?
**A.** 1400 nM

**Q.** And the “A431 Cell Proliferation CI Value”?
**A.** 0.75

**Q.** For Oc1c(C(Nc2ccc(F)cn2)c2ccc(F)cc2Cl)ccc2cccnc12 (stereo not drawn) [AD4-13099], which “A431 Cell Proliferation CI Value” is on record?
**A.** 0.61

**Q.** Which IC50 [1] does the source give for Oc1c(C(Nc2cc(Cl)ccn2)c2ccc(Cl)c(Cl)c2)ccc2cccnc12 (stereo not drawn) [AD4-13069] here?
**A.** 920 nM

**Q.** And the “A431 Cell Proliferation CI Value”?
**A.** 0.91

**Q.** For COc1ccc(C(Nc2cc(Cl)c(Cl)cn2)c2ccc3cccnc3c2O)c(OC)c1OC (stereo not drawn) [AD4-13197], which “A431 Cell Proliferation CI Value” is on record?
**A.** 0.63

**Q.** Which “A431 Cell Proliferation CI Value” does the source give for Cc1cccc(NC(c2cccc(Cl)c2Cl)c2ccc3cccnc3c2O)n1 (stereo not drawn) [AD4-12905] here?
**A.** 0.67

**Q.** What does the source list for Oc1c(C(Nc2ncc(Cl)cc2F)c2cccc(C(F)(F)F)c2)ccc2cccnc12 (stereo not drawn) [AD4-13145]?
**A.** IC50 [1]: 2400 nM; A431 Cell Proliferation CI Value: 0.86

**Q.** With Oc1c(C(Nc2ccc(Cl)cn2)c2cc(C(F)(F)F)ccc2Cl)ccc2cccnc12 (stereo not drawn) [AD4-13052] as the compound, how does the IC50 [1] read?
**A.** 1000 nM

**Q.** What about the “A431 Cell Proliferation CI Value” of the same compound?
**A.** 0.75

**Q.** What does the source list for Oc1c(C(Nc2ccccn2)c2c(F)c(F)c(OCC(F)(F)F)c(F)c2F)ccc2cccnc12 (stereo not drawn) [AD4-13093]?
**A.** IC50 [1]: 1800 nM; A431 Cell Proliferation CI Value: 0.80

**Q.** With Cc1cccc(NC(c2cc(Cl)cc(Cl)c2Cl)c2ccc3cccnc3c2O)n1 (stereo not drawn) [AD4-13023] as the compound, how does the IC50 [1] read?
**A.** 1800 nM

**Q.** And the “A431 Cell Proliferation CI Value”?
**A.** 0.74

**Q.** Which results are given for Cc1cc(NC(c2ccc(C(F)(F)F)cc2C(F)(F)F)c2ccc3cccnc3c2O)ncc1Cl (stereo not drawn) [AD4-13124]?
**A.** IC50 [1]: 1600 nM; A431 Cell Proliferation CI Value: 0.76

**Q.** How did the IC50 [1] turn out when Oc1c(C(Nc2ccccn2)c2ccc(Cl)c(C(F)(F)F)c2)ccc2cccnc12 (stereo not drawn) [AD4-13057] was run?
**A.** 1100 nM

**Q.** What about the “A431 Cell Proliferation CI Value” of the same compound?
**A.** 0.83

**Q.** For Oc1c(C(Nc2ccc(F)cn2)c2ccccc2Cl)ccc2cccnc12 (stereo not drawn) [AD4-13104], which IC50 [1] is on record?
**A.** 2800 nM

**Q.** What about the “A431 Cell Proliferation CI Value” of the same compound?
**A.** 0.67

**Q.** For Cc1ccnc(NC(c2cccc(Cl)c2Cl)c2ccc3cccnc3c2O)c1 (stereo not drawn) [AD4-12906], which “A431 Cell Proliferation CI Value” is on record?
**A.** 0.66

**Q.** With Cc1ccnc(NC(c2ccc(Cl)cc2Cl)c2ccc3cccnc3c2O)c1 (stereo not drawn) [AD4-12912] as the compound, how does the IC50 [1] read?
**A.** 1200 nM

**Q.** And the “A431 Cell Proliferation CI Value”?
**A.** 0.70

**Q.** For Oc1c(C(Nc2ccc(F)cn2)c2cc(Cl)ccc2Cl)ccc2cccnc12 (stereo not drawn) [AD4-13102], which IC50 [1] is on record?
**A.** 1400 nM

**Q.** And the “A431 Cell Proliferation CI Value”?
**A.** 0.75

**Q.** Oc1c(C(Nc2ccc(C(F)(F)F)nc2)c2ccc(C(F)(F)F)c(F)c2)ccc2cccnc12 (stereo not drawn) [AD4-13051] was tested. Which IC50 [1] did it give?
**A.** 1600 nM

**Q.** What about the “A431 Cell Proliferation CI Value” of the same compound?
**A.** 0.72

**Q.** For Oc1c(C(Nc2ccccn2)c2cc(Cl)ccc2Cl)ccc2cccnc12 (stereo not drawn) [AD4-12910], which “A431 Cell Proliferation CI Value” is on record?
**A.** 0.69

**Q.** How did the “A431 Cell Proliferation CI Value” turn out when COc1ccc(C(Nc2cc(Cl)c(Cl)cn2)c2ccc3cccnc3c2O)cc1OC (stereo not drawn) [AD4-13195] was run?
**A.** 0.81

**Q.** What does the source list for Cc1cc(NC(c2cc(Cl)cc(Cl)c2)c2ccc3cccnc3c2O)ncc1F (stereo not drawn) [AD4-13114]?
**A.** IC50 [1]: 860 nM; A431 Cell Proliferation CI Value: 0.81

**Q.** Oc1c(C(Nc2ccc(F)cn2)c2ccc(Cl)c(Cl)c2)ccc2cccnc12 (stereo not drawn) [AD4-13113] was tested. Which “A431 Cell Proliferation CI Value” did it give?
**A.** 0.59

**Q.** For Cc1ccnc(NC(c2ccc3cccnc3c2O)c2c(F)c(F)c(OCC(F)(F)F)c(F)c2F)c1 (stereo not drawn) [AD4-13092], which IC50 [1] is on record?
**A.** 1500 nM

**Q.** And the “A431 Cell Proliferation CI Value”?
**A.** 0.79

**Q.** Which IC50 [1] does the source give for Oc1c(C(Nc2ccc(F)cn2)c2cc(Cl)cc(Cl)c2Cl)ccc2cccnc12 (stereo not drawn) [AD4-13132] here?
**A.** 1900 nM

**Q.** What about the “A431 Cell Proliferation CI Value” of the same compound?
**A.** 0.82

**Q.** For Cc1cc(NC(c2ccc3cccnc3c2O)c2c(F)cccc2Cl)ncc1F (stereo not drawn) [AD4-13117], which IC50 [1] is on record?
**A.** 1300 nM

**Q.** What about the “A431 Cell Proliferation CI Value” of the same compound?
**A.** 0.72

**Q.** Which results are given for Oc1c(C(Nc2ccc(F)cn2)c2cccc(Cl)c2Cl)ccc2cccnc12 (stereo not drawn) [AD4-13103]?
**A.** IC50 [1]: 1400 nM; A431 Cell Proliferation CI Value: 0.79

**Q.** Cc1c(Cl)cnc(NC(c2ccc(Cl)cc2Cl)c2ccc3cccnc3c2O)c1F (stereo not drawn) [AD4-13199] was tested. Which IC50 [1] did it give?
**A.** 2000 nM

**Q.** What about the “A431 Cell Proliferation CI Value” of the same compound?
**A.** 1.1

**Q.** With Cc1cc(NC(c2ccccc2Cl)c2ccc3cccnc3c2O)ncc1F (stereo not drawn) [AD4-13116] as the compound, how does the “A431 Cell Proliferation CI Value” read?
**A.** 0.52

**Q.** For Cc1cc(Cl)cnc1NC(c1ccc2cccnc2c1O)c1c(F)c(F)cc(F)c1F (stereo not drawn) [AD4-13059], which IC50 [1] is on record?
**A.** 1000 nM

**Q.** And the “A431 Cell Proliferation CI Value”?
**A.** 0.71

**Q.** What does the source list for Cc1cc(NC(c2ccc(F)cc2Cl)c2ccc3cccnc3c2O)ncc1F (stereo not drawn) [AD4-13115]?
**A.** IC50 [1]: 1600 nM; A431 Cell Proliferation CI Value: 0.74

**Q.** How did the IC50 [1] turn out when Oc1c(C(Nc2ccc(C(F)(F)F)cn2)c2cc(C(F)(F)F)ccc2Cl)ccc2cccnc12 (stereo not drawn) [AD4-13056] was run?
**A.** 1900 nM

**Q.** And the “A431 Cell Proliferation CI Value”?
**A.** 0.63

**Q.** What does the source list for Oc1c(C(Nc2ccc(C(F)(F)F)nc2)c2ccc(Cl)cc2Cl)ccc2cccnc12 (stereo not drawn) [AD4-13066]?
**A.** IC50 [1]: 5400 nM; A431 Cell Proliferation CI Value: 0.60

**Q.** How did the IC50 [1] turn out when Oc1c(C(Nc2cccnc2)c2cccc(Cl)c2Cl)ccc2cccnc12 (stereo not drawn) [AD4-12908] was run?
**A.** 4200 nM

**Q.** And the “A431 Cell Proliferation CI Value”?
**A.** 0.64

**Q.** With Oc1c(C(Nc2ccc(Cl)cn2)c2ccc(C(F)(F)F)c(F)c2)ccc2cccnc12 (stereo not drawn) [AD4-13055] as the compound, how does the IC50 [1] read?
**A.** 1500 nM

**Q.** And the “A431 Cell Proliferation CI Value”?
**A.** 0.75

**Q.** How did the “A431 Cell Proliferation CI Value” turn out when Oc1c(C(Nc2cccnc2)c2cccs2)ccc2cccnc12 (stereo not drawn) [AD4-10315] was run?
**A.** 0.79
